The target in assay [1] is p38 (Homo sapiens, UniProt Q16539). Briefly: p38 in-vitro HTRF enzyme assay. The conditions noted are these: recombinant human enzyme; range symbols; read-out: p38 enyme HTRF assay IC50. The assay is classed as biochemical. The procedure: p38 In-Vitro HTRF Enzyme Assay
The compounds of the invention can be tested for their respective affinities for the p38 protein using a conventional p38 in-vitro enzyme activity assay. For example, a P38-alpha HTRF assay may be used to measure the protein's in-vitro phosphorylation activity, and the data analyzed using time resolved fluorimetry techniques (FRET). A p38 HTRF assay is as follows. The kinase reaction buffer for p38α, p38β, p38δ and p38γ HTRF assays consists of 50 mM Tris-pH 7.5, 5 mM MgCl2, 0.1 mg/mL BSA, 100 μM Na3VO4 and 0.5 mM DTT. The HTRF detection buffer contains 100 mM HEPES-pH 7.5, 100 mM NaCl, 0.1% BSA, 0.05% Tween-20, and 10 mM EDTA. Each compound was dissolved in 100% DMSO and serially diluted (3 fold, 10 point) in a polypropylene 96-well microtiter plate (drug plate). The final starting concentration of the compound in the p38α and p38β enzymatic assays was about 1 μM. The final starting concentration of each compound in the p38δ and p38γ enzymatic assays was about 10 μM. The p38α, p38β, p38δ and p38γ kinase reactions were carried out in a polypropylene 96-well black round bottom assay plate in total volume of 30 μL kinase reaction buffer. Appropriate concentration of purified and activated enzyme (recombinant human) was mixed with indicated concentration of ATP and 100 nM GST-ATF2-Avitag, in the presence or absence (HI control) of each compound. In the absence of enzyme, the background was measured as LO control. HI controls and LO controls contained only DMSO. The reaction was allowed to incubate for 1 hour at RT. […] After 60 minutes incubation at room temperature, the assay plate was read in a Discovery Plate Reader. […] The resulting data was analyzed by taking the proportion of substrate phosphorylated in the kinase reaction in the presence of each individual compound and comparing it with that phosphorylated in the presence of DMSO vehicle alone (HI control). The data was calculated using the formula: % control (POC)=(compound−average LO)/(average HI−average LO)*100. […] All results were expressed as the mean±the standard error of the mean. Data acquisition and non-linear regression algorithms were performed using Activity Base v5.2 and XLfit software v4.1 respectively. Additional assay information may be obtained in Park Y W, Cummings R T, Wu L, et al. Homogeneous Proximity Tyrosine Kinase Assays Scintillation Proximity Assay versus Homogeneous Time-Resolved Fluorescence. Analytical Biochemistry.

Assay [2] concerns IL-1. Briefly: LPS induced IL-1 cell based assay (LPS-activated monocytes). The conditions noted are these: Homo sapiens, Monocyte; range symbols. The procedure:
Lipopolysaccharide-Activated Monocyte TNF Production Assay
Test compounds were evaluated in vitro for the ability to inhibit the production of TNF by monocytes activated with bacterial lipopolysaccharide (LPS). Fresh residual source leukocytes (a byproduct of plateletpheresis) were obtained from a local blood bank, and peripheral blood mononuclear cells (PBMCs) were isolated by density gradient centrifugation on Ficol-Paque Plus (Pharmacia). PBMCs were suspended at 2×10^6/mL in DMEM supplemented to contain 2% FCS, 10 mM, 0.3 mg/mL […], 100 U/mL penicillin G and […] streptomycin sulfate (complete media). Cells were plated into Falcon flat bottom, 96 well culture plates (200 μL/well) and cultured overnight at 37° C. and 6% CO2. Non-adherent cells were removed by washing with 200 μl/well of fresh medium. Wells containing adherent cells (˜70% monocytes) were replenished with 100 μL of fresh medium.
Preparation of Test Compound Stock Solutions
Test compounds were dissolved in […]. Compound stock solutions were prepared to an initial concentration of […]. Stocks were diluted initially to 20-200 μM in complete media. Nine two-fold serial dilutions of each compound were then prepared in complete medium.
Treatment of Cells with Test Compounds and Activation of TNF Production with Lipopolysaccharide
One hundred microliters of each test compound dilution were added to microtiter wells containing adherent monocytes and 100 μL complete medium. Monocytes were cultured with test compounds for 60 min at which time 25 μL of complete medium containing 30 ng/mL lipopolysaccharide from E. coli K532 were added to each well. Cells were cultured an additional 4 hrs. Culture supernatants were then removed and TNF presence in the supernatants was quantified using an ELISA. […]
Standard curve data were fit to a second order polynomial and unknown TNF-α concentrations determined from their OD by solving this equation for concentration. TNF concentrations were then plotted vs. test compound concentration using a second order polynomial. This equation was then used to calculate the concentration of test compounds causing a 50% reduction in TNF production.
Compounds of the invention can also be shown to inhibit LPS-induced release of IL-1β, IL-6 and/or IL-8 from monocytes by measuring concentrations of IL-1β, IL-6 and/or IL-8 by methods well known to those skilled in the art. […] Thus, the compounds of the invention may lower elevated levels of TNF-α, IL-1, IL-6, and IL-8 levels. Reducing elevated levels of these inflammatory cytokines to basal levels or below is favorable in controlling, slowing progression, and alleviating many disease states.

For assay [3], the system named is THP1 cells. Briefly: Lipopolysaccharide-activated THP1 cell TNF production assay (THP1 cell based). The conditions noted are these: Homo sapiens, THP-1, LPS-induced TNF-α, range symbols. The procedure: Lipopolysaccharide-Activated THP1 Cell TNF Production Assay
THP1 cells are resuspended in fresh THP1 media (RPMI 1640, 10% heat-inactivated FBS, 1XPGS, 1XNEAA, plus 30 μM PME) at a concentration of 1E6/mL. One hundred microliters of cells per well are plated in a polystyrene 96-well tissue culture. One microgram per mL of bacterial LPS is prepared in THP1 media and is transferred to the wells. Test compounds are dissolved in 100% DMSO and are serially diluted 3-fold in a polypropylene 96-well microtiter plate (drug plate). HI control and LO control wells contain only DMSO. One microliter of test compound from the drug plate followed by 10 μL of LPS are transferred to the cell plate. The treated cells are induced to synthesize and secrete TNF-α at 37° C. for 3 h. Forty microliters of conditioned media are transferred to a 96-well polypropylene plate containing 110 μL of ECL buffer (50 mM Tris-HCl pH 8.0, 100 mM NaCl, 0.05% Tween 20, 0.05% NaN3 and 1% FBS) supplemented with 0.44 nM MAB610 monoclonal Ab (R&D Systems), 0.34 nM ruthenylated AF210NA polyclonal Ab (R&D Systems) and 44 μg/mL sheep anti-mouse M280 Dynabeads (Dynal). After a 2 h incubation at room temperature with shaking, the reaction is read on the ECL M8 Instrument (IGEN Inc.). A low voltage is applied to the ruthenylated TNF-α immune complexes, which in the presence of TPA (the active component in Origlo), results in a cyclical redox reaction generating light at […]. The amount of secreted TNF-α in the presence of compound compared with that in the presence of DMSO vehicle alone (HI control) is calculated using the formula: % control (POC)=(cpd−average LO)/(average HI−average LO)*100. Data (consisting of POC and inhibitor concentration in μM) is fitted to a 4-parameter equation (y=A+((B−A)/(1+((x/C)^D))), where A is the minimum y (POC) value, B is the maximum y (POC), C is the x (cpd concentration) at the point of inflection and D is the slope factor) using a Levenburg-Marquardt non-linear regression algorithm.

The record followed here is patent US8080546B2, “Pyrazolo-pyridinone derivatives and methods of use” (Amgen Inc., priority 2007, dated 2011).

p38, sequence (Q16539 whole entry): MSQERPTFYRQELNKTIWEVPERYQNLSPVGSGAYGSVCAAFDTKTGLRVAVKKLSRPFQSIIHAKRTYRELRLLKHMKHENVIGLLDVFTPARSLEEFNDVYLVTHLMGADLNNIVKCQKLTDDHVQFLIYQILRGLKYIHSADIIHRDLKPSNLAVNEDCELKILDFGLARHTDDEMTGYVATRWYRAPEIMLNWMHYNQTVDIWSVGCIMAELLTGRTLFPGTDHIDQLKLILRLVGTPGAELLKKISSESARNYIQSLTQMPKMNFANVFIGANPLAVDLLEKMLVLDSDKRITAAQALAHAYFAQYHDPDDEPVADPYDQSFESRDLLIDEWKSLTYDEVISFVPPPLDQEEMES

A word on the IC50: it is the concentration needed to halve the response being measured. With `Cn1c(=O)cc(Nc2cc(C(=O)NC3CC3)ccc2Cl)c2cnn(-c3c(F)cccc3F)c21` [Example 11, 4-chloro-N-cyclopropyl-3-((1-(2,6-difluorophenyl)-7-methyl-6-oxo-6,7-dihydro-1H-pyrazolo[3,4-b]pyridin-4-yl)amino)benzamide], the concentration for half-maximal inhibition (IC50) in assay [1], in assay [2] and in assay [3] was less than 25 nM each time.

On to `Cn1c(=O)cc(Nc2cc(C(=O)NC3CC3)ccc2Cl)c2cnn(-c3cc(F)ccc3F)c21` [Example 12, 4-chloro-N-cyclopropyl-3-((1-(2,5-difluorophenyl)-7-methyl-6-oxo-6,7-dihydro-1H-pyrazolo[3,4-b]pyridin-4-yl)amino)benzamide], for which the IC50 in assay [1], in assay [2] and in assay [3] was less than 25 nM in each case.

Regarding `Cc1ccc(C(=O)NC2CC2)cc1Nc1cc(=O)n(C)c2c1cnn2-c1c(F)cccc1F` [Example 15, N-cyclopropyl-3-((1-(2,6-difluorophenyl)-7-methyl-6-oxo-6,7-dihydro-1H-pyrazolo[3,4-b]pyridin-4-yl)amino)-4-methylbenzamide], the IC50 in assay [1], in assay [2] and in assay [3] was less than 25 nM throughout.

For the molecule `Cc1ccc(C(=O)NC2CC2)cc1Oc1cc(=O)n(C)c2c1cnn2-c1c(F)cccc1F` [Example 16, N-cyclopropyl-3-((1-(2,6-difluorophenyl)-7-methyl-6-oxo-6,7-dihydro-1H-pyrazolo[3,4-b]pyridin-4-yl)oxy)-4-methylbenzamide], the 50% inhibitory concentration (IC50) in assay [1] is less than 25 nM; in assay [2] it was 25 to 99 nM; in assay [3], less than 25 nM.

For the molecule `Cc1ccc(C(=O)O)cc1Nc1cc(=O)n(C)c2c1cnn2-c1ccc(F)cc1F` [Example 17, 3-((1-(2,4-difluorophenyl)-7-methyl-6-oxo-6,7-dihydro-1H-pyrazolo[3,4-b]pyridin-4-yl)amino)-4-methylbenzoic acid], the IC50 in assay [1], in assay [2] and in assay [3] was 1000 to 5000 nM in each case.

For `Cc1ccc(C(N)=O)cc1Nc1cc(=O)n(C)c2c1cnn2-c1ccc(F)cc1F` [Example 18, 3-((1-(2,4-difluorophenyl)-7-methyl-6-oxo-6,7-dihydro-1H-pyrazolo[3,4-b]pyridin-4-yl)amino)-4-methylbenzamide], the IC50 in assay [1], in assay [2] and in assay [3] was less than 25 nM in each case.

`Cc1ccc(C(=O)NC2CC2)cc1Oc1cc(=O)n(C)c2c1cnn2-c1ccc(F)cc1F` [Example 19, N-cyclopropyl-3-((1-(2,4-difluorophenyl)-7-methyl-6-oxo-6,7-dihydro-1H-pyrazolo[3,4-b]pyridin-4-yl)oxy)-4-methylbenzamide]: the values for the IC50 in assay [1], in assay [2] and in assay [3] were less than 25 nM, 25 to 99 nM and less than 25 nM, respectively.

Take `Cc1ccc(C(=O)NC2CC2)cc1Nc1cc(=O)n(C)c2c1cnn2-c1cc(F)ccc1F` [Example 20, N-cyclopropyl-3-((1-(2,5-difluorophenyl)-7-methyl-6-oxo-6,7-dihydro-1H-pyrazolo[3,4-b]pyridin-4-yl)amino)-4-methylbenzamide]: the half-inhibitory concentration (IC50) in assay [1], in assay [2] and in assay [3] was less than 25 nM each time.

In the case of `Cc1ccc(C(N)=O)cc1Nc1cc(=O)n(C)c2c1cnn2-c1cc(F)ccc1F` [Example 21, 3-((1-(2,5-difluorophenyl)-7-methyl-6-oxo-6,7-dihydro-1H-pyrazolo[3,4-b]pyridin-4-yl)amino)-4-methylbenzamide], the IC50 is less than 25 nM in assay [1], 25 to 99 nM in assay [2] and less than 25 nM in assay [3].

On to `Cc1ccc(C(=O)NC2CC2)cc1Oc1cc(=O)n(C)c2c1cnn2-c1cc(F)ccc1F` [Example 22, N-cyclopropyl-3-((1-(2,5-difluorophenyl)-7-methyl-6-oxo-6,7-dihydro-1H-pyrazolo[3,4-b]pyridin-4-yl)oxy)-4-methylbenzamide], for which the half-inhibitory concentration (IC50) in assay [1] is less than 25 nM; in assay [2], 100 to 249 nM; in assay [3], less than 25 nM.

Regarding `CCn1c(=O)cc(Nc2cc(C(=O)NC3CC3)ccc2C)c2cnn(-c3ccc(F)cc3)c21` [Example 23, N-cyclopropyl-3-((7-ethyl-1-(4-fluorophenyl)-6-oxo-6,7-dihydro-1H-pyrazolo[3,4-b]pyridin-4-yl)amino)-4-methylbenzamide], the IC50 in assay [1], in assay [2] and in assay [3] was less than 25 nM each time.

Take `CCn1c(=O)cc(Oc2cc(C(=O)NC3CC3)ccc2C)c2cnn(-c3ccc(F)cc3)c21` [Example 24, N-cyclopropyl-3-((7-ethyl-1-(4-fluorophenyl)-6-oxo-6,7-dihydro-1H-pyrazolo[3,4-b]pyridin-4-yl)oxy)-4-methylbenzamide]: the concentration for half-maximal inhibition (IC50) in assay [1] was less than 25 nM; in assay [2] it was 25 to 99 nM; in assay [3], less than 25 nM.
